Results: patent publication US10017504B2, “Piperidine isoxazole and isothiazole orexin receptor antagonists” (MERCK SHARP & DOHME CORP., priority 2014, dated 2018)

molecular target: human orexin-2 receptor (Homo sapiens (Human), UniProt O43614); assay: FLIPR Ca2+ Flux Assay, orexin-2 receptor; format: cell-based; conditions: CHO cells expressing the human orexin-2 receptor; agonist 70 pM Ala-6,12 human orexin-A; read-out: hOX2 FLIPR IC50
Protocol: In a typical experiment the OX1 and OX2 receptor antagonistic activity of the compounds of the present invention was determined in accordance with the following experimental method. For intracellular calcium measurements, Chinese hamster ovary (CHO) cells expressing the rat orexin-1 receptor or the human orexin-2 receptor, are grown in Iscove's modified DMEM containing 2 mM L-glutamine, […], 1% hypoxanthine-thymidine supplement, 100 U/ml penicillin, 100 μg/ml streptomycin and 10% heat-inactivated fetal calf serum (FCS). The cells are seeded at 20,000 cells/well into Becton-Dickinson black 384-well clear bottom sterile plates coated with poly-D-lysine. All reagents are from GIBCO-Invitrogen Corp. The seeded plates are incubated overnight at 37° C. and 5% CO2. Ala-6,12 human orexin-A as the agonist is prepared as a 1 mM stock solution in 1% bovine serum albumin (BSA) and diluted in assay buffer (HBSS containing 20 mM HEPES, 0.1% BSA and 2.5 mM probenecid, pH7.4) for use in the assay at a final concentration of 70 pM. Test compounds are prepared as 10 mM stock solution in DMSO, then diluted in 384-well plates, first in DMSO, then assay buffer. On the day of the assay, cells are washed 3 times with 100 μl assay buffer and then incubated for 60 min (37° C., 5% CO2) in 60 μl assay buffer containing 1 μM Fluo-4AM ester, 0.02% pluronic acid, and 1% BSA. The dye loading solution is then aspirated and cells are washed 3 times with 100 μl assay buffer. 30 μl of that same buffer is left in each well. Within the Fluorescent Imaging Plate Reader (FLIPR, Molecular Devices), test compounds are added to the plate in a volume of 25 μl, incubated for 5 min and finally 25 μl of agonist is added. Fluorescence is measured for each well at 1 second intervals for 5 minutes and the height of each fluorescence peak is compared to the height of the fluorescence peak induced by 70 pM Ala-6,12 orexin-A with buffer in place of antagonist. […] The intrinsic orexin receptor antagonist activity of a compound which may be used in the present invention may be determined by these assays.

Sequence of human orexin-2 receptor (O43614 whole entry): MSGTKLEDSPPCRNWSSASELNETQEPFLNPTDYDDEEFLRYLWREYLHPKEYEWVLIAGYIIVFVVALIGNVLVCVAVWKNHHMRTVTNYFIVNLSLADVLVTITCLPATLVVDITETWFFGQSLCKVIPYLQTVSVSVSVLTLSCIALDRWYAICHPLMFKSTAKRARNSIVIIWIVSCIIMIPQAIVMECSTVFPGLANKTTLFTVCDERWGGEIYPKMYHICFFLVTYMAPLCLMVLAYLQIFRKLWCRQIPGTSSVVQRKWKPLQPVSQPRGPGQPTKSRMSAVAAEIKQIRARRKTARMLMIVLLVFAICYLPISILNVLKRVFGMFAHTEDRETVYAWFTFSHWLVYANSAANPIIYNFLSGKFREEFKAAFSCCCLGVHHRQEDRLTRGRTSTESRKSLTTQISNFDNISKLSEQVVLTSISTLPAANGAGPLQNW

Structure (SMILES)	IC50
C[C@@H]1CC[C@@H](c2cc([C@@H](O)C(F)(F)F)no2)CN1C(=O)c1ccsc1-n1nccn1 [Example 42, (1R)-2,2,2-Trifluoro-1-{5-[(3R,6R)-6-methyl-1-{[2-(2H-1,2,3-triazol-2-yl)thiophen-3-yl]carbonyl}piperidin-3-yl]isoxazol-3-yl}ethanol]	154 nM
C[C@@H]1CC[C@@H](c2cc(C(C)(C)O)no2)CN1C(=O)c1cc(F)ccc1-n1nccn1 [Example 24, 2-{5-[(3R,6R)-1-{[5-Fluoro-2-(2H-1,2,3-triazol-2-yl)phenyl]carbonyl}-6-methylpiperidin-3-yl]isoxazol-3-yl}propan-2-ol]	215 nM
C[C@@H]1CC[C@@H](c2cc(C(C)(C)O)sn2)CN1C(=O)c1ccccc1OC(F)(F)F [Example 68, 2-{3-[(3R,6R)-6-Methyl-1-{[2-(trifluoromethoxy)phenyl]carbonyl}piperidin-3-yl]isothiazol-5-yl}propan-2-ol]	22.8 nM
C[C@@H]1CC[C@@H](c2cc(C(C)(C)O)no2)CN1C(=O)c1cccnc1-c1ccccc1 [Example 33, 2-(5-{(3R,6R)-6-Methyl-1-[(2-phenylpyridin-3-yl)carbonyl]piperidin-3-yl}isoxazol-3-yl)propan-2-ol]	134 nM
CC(C)C(C)(O)c1cc([C@@H]2CC[C@@H](C)N(C(=O)c3ccccc3-n3nccn3)C2)no1 (single isomer, unassigned) [Example 17]	24.5 nM
C[C@@H]1CC[C@@H](c2cc(C(C)(C)O)no2)CN1C(=O)c1ccccc1-c1cnccn1 [Example 37, 2-(5-{(3R,6R)-6-Methyl-1-[(2-pyrazin-2-ylphenyl)carbonyl]piperidin-3-yl}isoxazol-3-yl)propan-2-ol]	1030 nM
CCOc1ccccc1C(=O)N1C[C@H](c2cc(C(C)(C)O)no2)CC[C@H]1C [Example 31, 2-(5-{(3R,6R)-1-[(2-Ethoxyphenyl)carbonyl]-6-methylpiperidin-3-yl}isoxazol-3-yl)propan-2-ol]	178 nM
C[C@@H]1CC[C@@H](c2cc(C(C)(C)O)sn2)CN1C(=O)c1ccc(F)cc1-n1nccn1 [Example 61, 2-{3-[(3R,6R)-1-{[4-Fluoro-2-(2H-1,2,3-triazol-2-yl)phenyl]carbonyl}-6-methylpiperidin-3-yl]isothiazol-5-yl}propan-2-ol]	18.6 nM
C[C@@H]1CC[C@@H](c2cc([C@H](O)C(F)(F)F)no2)CN1C(=O)c1ccccc1-n1nccn1 [Example 41, (1S)-2,2,2-trifluoro-1-{5-[(3R,6R)-6-methyl-1-{[2-(2H-1,2,3-triazol-2-yl)phenyl]carbonyl}piperidin-3-yl]isoxazol-3-yl}ethanol]	17.5 nM
C[C@@H]1CC[C@@H](c2cc([C@](C)(O)C(F)F)on2)CN1C(=O)c1ccccc1-n1nccn1 [Example 18, (2S)-1,1-Difluoro-2-{3-[(3R,6R)-6-methyl-1-{[2-(2H-1,2,3-triazol-2-yl)phenyl]carbonyl}piperidin-3-yl]isoxazol-5-yl}propan-2-ol]	92 nM
C[C@@H]1CC[C@@H](c2cc(C3CCCO3)no2)CN1C(=O)c1ccccc1-n1nccn1 (stereo partly drawn) [Example 56, (2R,5R)-2-Methyl-5-[3-(tetrahydrofuran-2-yl)isoxazol-5-yl]-1-{[2-(2H-1,2,3-triazol-2-yl)phenyl]carbonyl}piperidine]	311 nM
CCC(O)(CC)c1cc([C@@H]2CC[C@@H](C)N(C(=O)c3ccccc3-n3nccn3)C2)no1 [Example 8, (2-(2H-1,2,3-triazol-2-yl)phenyl)((2R,5R)-5-(5-(3-hydroxypentan-3-yl)isoxazol-3-yl)-2-methylpiperidin-1-yl)methanone]	552 nM
CC(C)C(C)(O)c1cc([C@@H]2CC[C@@H](C)N(C(=O)c3ccccc3-n3nccn3)C2)no1 (single isomer, unassigned) [Example 16]	24.3 nM
COCc1ccccc1C(=O)N1C[C@H](c2cc(C(C)(C)O)no2)CC[C@H]1C [Example 21, 2-{5-[(3R,6R)-1-{[2-(Methoxymethyl)phenyl]carbonyl}-6-methylpiperidin-3-yl]isoxazol-3-yl}propan-2-ol]	1120 nM
C[C@@H]1CC[C@@H](c2cc([C@@H](O)C(F)(F)F)no2)CN1C(=O)c1ccccc1C1(C#N)CC1 [Example 44, 1-(2-{[(2R,5R)-2-Methyl-5-{3-[(1R)-2,2,2-Trifluoro-1-hydroxyethyl]isoxazol-5-yl}piperidin-1-yl]carbonyl}phenyl)cyclopropanecarbonitrile]	26.8 nM
C[C@@H]1CC[C@@H](c2cc(C(C)(C)O)sn2)CN1C(=O)c1ccsc1-c1ncccn1 [Example 64, 2-(3-{(3R,6R)-6-Methyl-1-[(2-pyrimidin-2-ylthiophen-3-yl)carbonyl]piperidin-3-yl}isothiazol-5-yl)propan-2-ol]	36.8 nM
C[C@@H]1CC[C@@H](c2cc(C(C)(O)C3CC3)no2)CN1C(=O)c1ccccc1-n1nccn1 (single isomer, unassigned) [Example 52]	47.3 nM
COC(=O)c1ccccc1C(=O)N1C[C@H](c2cc(C(C)(C)O)sn2)CC[C@H]1C [Example 67, Methyl 2-({(2R,5R)-5-[5-(1-hydroxy-1-methylethyl)isothiazol-3-yl]-2-methylpiperidin-1-yl}carbonyl)benzoate]	43.6 nM
C[C@@H]1CC[C@@H](c2cc([C@@H](O)C(F)(F)F)no2)CN1C(=O)c1ccccc1-n1nccn1 [Example 40, (1R)-2,2,2-Trifluoro-1-{5-[(3R,6R)-6-methyl-1-{[2-(2H-1,2,3-triazol-2-yl)phenyl]carbonyl}piperidin-3-yl]isoxazol-3-yl}ethanol]	11 nM
C[C@@H]1CC[C@@H](c2cc(C(C)(C)O)no2)CN1C(=O)c1ccccc1C1CC1(F)F (stereo partly drawn) [Example 38, 2-{5-[(3R,6R)-1-{[2-(2,2-Difluorocyclopropyl)phenyl]carbonyl}-6-methylpiperidin-3-yl]isoxazol-3-yl}propan-2-ol]	52.4 nM
COC(C)(C)c1cc([C@@H]2CC[C@@H](C)N(C(=O)c3ccccc3-n3nccn3)C2)on1 [Example 57, (2R,5R)-5-[3-(1-Methoxy-1-methylethyl)isoxazol-5-yl]-2-methyl-1-{[2-(2H-1,2,3-triazol-2-yl)phenyl]carbonyl}piperidine]	14.4 nM
C[C@@H]1CC[C@@H](c2cc(C(C)(C)O)on2)CN1C(=O)c1cc(Cl)ccc1-n1nccn1 [Example 3, (5-Chloro-2-(2H-1,2,3-triazol-2-yl)phenyl)((2R,5R)-5-(5-(2-hydroxypropan-2-yl)isoxazol-3-yl)-2-methylpiperidin-1-yl)methanone]	1430 nM
CC(C)Oc1ncccc1C(=O)N1C[C@H](c2cc(C(C)(C)O)on2)CC[C@H]1C [Example 6, ((2R,5R)-5-(5-(2-Hydroxypropan-2-yl)isoxazol-3-yl)-2-methylpiperidin-1-yl)(2-isopropoxypyridin-3-yl)methanone]	1840 nM
C[C@@H]1CC[C@@H](c2cc(C(C)(C)O)on2)CN1C(=O)c1cccnc1OCC(F)(F)F [Example 7, ((2R,5R)-5-(5-(2-Hydroxypropan-2-yl)isoxazol-3-yl)-2-methylpiperidin-1-yl)(2-(2,2,2-trifluoroethoxy)pyridin-3-yl)methanone]	227 nM
C[C@@H]1CC[C@@H](c2cc(C(C)(C)O)no2)CN1C(=O)c1ccccc1-n1nccn1 [Example 20, 2-{5-[(3R,6R)-6-Methyl-1-{[2-(2H-1,2,3-triazol-2-yl)phenyl]carbonyl}piperidin-3-yl]isoxazol-3-yl}propan-2-ol]	30.3 nM
